Earlier results in patent publication US4294824A, “Extracts of the hemopoietic system” (priority 1975, dated 1981).

settings: lists continue in the following blocks

Structure (SMILES) | SOME SIDE EFFECTS AND MAJOR TOXICITY
O=P1(N(CCCl)CCCl)NCCCO1 (centres unmarked) [CYCLOPHOSPHAMIDE, cyclophosphamide] | Leucopenia, anorexia, nausea, vomiting. diarrhoea
Nc1ccn([C@@H]2O[C@H](CO)[C@@H](O)[C@@H]2O)c(=O)n1 [CYTOSINE ARABINOSIDE, cystosine arabinoside] | Myelosuppression, bone marrow depression, nausea
COc1cccc2c1C(=O)c1c(O)c3c(c(O)c1C2=O)C[C@@](O)(C(C)=O)C[C@@H]3O[C@H]1C[C@H](N)[C@H](O)[C@H](C)O1 [DAUNORUBICIN, daunorubicin] | Myelosuppression, leucopenia, anaemia
CN(Cc1cnc2nc(N)nc(N)c2n1)c1ccc(C(=O)N[C@@H](CCC(=O)O)C(=O)O)cc1 [METHOTREXATE, methotrexate] | Myelosuppression, bone marrow depression, leucopenia
CC[C@]1(O)C[C@H]2CN(CCc3c([nH]c4ccccc34)[C@@](C(=O)OC)(c3cc4c(cc3OC)N(C=O)[C@H]3[C@@](O)(C(=O)OC)[C@H](OC(C)=O)[C@]5(CC)C=CCN6CC[C@]43[C@@H]65)C2)C1 [VINCRISTINE, vincristine] | Peripheral neuropathy, adynamic ileus, myopathy
